ChEMBL document CHEMBL1201862, “PubChem BioAssay data set” (2004)
Calls of active or inactive are those of the source.

Key:
cells [1] = assay type: functional, cell-based
cells [2] = assay type: functional, cell-based; remark: listed apart in the source
[3] = viability of PTEN-deleted HCT116 cells – cell-based, HCT116 PTEN knockout, dose response (AID 1047); assay type: functional;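 note: HCT116 colon tumor cells with PTEN knocked out; cells exposed to compound for 60 hours before readout; potency for loss of cell viability measured by luminescence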
[4] = viability of HCT116 lacking mutant beta-catenin – cell-based, human colon tumor, dose response (AID 1045); assay type: functional;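 note: HCT116 colon tumor cells with beta catenin knocked out; cells exposed to compound for 60 hours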
[5] = HIV-1 AD8 envelope cell-cell fusion blockers – cherry-pick, dose response (AID 652062); assay type: functional, cell-based;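 note: luciferase signal from cell-cell fusion driven by HIV-1 clade B AD8 Env; potency is for inhibitors of fusion seen as a drop in luminescence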
[6] = blockers of HIV-1 ZM109 envelope-driven cell-cell fusion – HeLa effector, CEM target cells, luciferase, cherry-pick, dose response (AID 652058); assay type: functional, cell-based;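 note: luciferase signal from HIV-1 Env mediated cell-cell fusion of effector and target cells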
[7] = blockers of HIV-1 envelope-mediated cell-cell fusion – cherry-pick, dose response (AID 652057); assay type: functional, cell-based
[8] = target: T1, Heat shock factor protein 1 (Mus musculus, UniProt P38532); experiment: decrease of HSF1-responsive luciferase luminescence – cell-based, NIH3T3, dose retest, confirmation (AID 2382); assay type: functional;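 note: NIH3T3 fibroblasts with HSF1-driven luciferase reporter stressed by proteasome inhibitor MG132; luminescence from HSF1-driven luciferase expression after 8 hours of MG132 stress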
T1 sequence (P38532 whole entry): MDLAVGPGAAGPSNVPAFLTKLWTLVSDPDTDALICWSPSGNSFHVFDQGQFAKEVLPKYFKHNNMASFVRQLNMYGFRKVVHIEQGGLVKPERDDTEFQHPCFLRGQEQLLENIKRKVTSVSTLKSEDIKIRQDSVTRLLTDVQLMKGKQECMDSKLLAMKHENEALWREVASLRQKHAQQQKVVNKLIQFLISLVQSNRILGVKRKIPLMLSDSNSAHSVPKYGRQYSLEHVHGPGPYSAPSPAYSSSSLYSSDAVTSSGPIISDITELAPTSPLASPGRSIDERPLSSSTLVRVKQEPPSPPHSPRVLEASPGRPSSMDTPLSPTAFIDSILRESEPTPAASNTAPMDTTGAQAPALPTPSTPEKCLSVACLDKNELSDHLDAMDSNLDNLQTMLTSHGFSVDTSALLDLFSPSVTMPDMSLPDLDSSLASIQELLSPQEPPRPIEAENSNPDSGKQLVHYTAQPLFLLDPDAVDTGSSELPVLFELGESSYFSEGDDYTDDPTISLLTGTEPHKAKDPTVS

[9] = target: T2, High affinity choline transporter 1 (Homo sapiens, UniProt Q9GZV3); experiment: human choline transporter blockers, potency – cell-based, 5-point CRC, membrane potential dye, dose response (AID 504840); assay type: functional
T2 sequence (Q9GZV3 whole entry): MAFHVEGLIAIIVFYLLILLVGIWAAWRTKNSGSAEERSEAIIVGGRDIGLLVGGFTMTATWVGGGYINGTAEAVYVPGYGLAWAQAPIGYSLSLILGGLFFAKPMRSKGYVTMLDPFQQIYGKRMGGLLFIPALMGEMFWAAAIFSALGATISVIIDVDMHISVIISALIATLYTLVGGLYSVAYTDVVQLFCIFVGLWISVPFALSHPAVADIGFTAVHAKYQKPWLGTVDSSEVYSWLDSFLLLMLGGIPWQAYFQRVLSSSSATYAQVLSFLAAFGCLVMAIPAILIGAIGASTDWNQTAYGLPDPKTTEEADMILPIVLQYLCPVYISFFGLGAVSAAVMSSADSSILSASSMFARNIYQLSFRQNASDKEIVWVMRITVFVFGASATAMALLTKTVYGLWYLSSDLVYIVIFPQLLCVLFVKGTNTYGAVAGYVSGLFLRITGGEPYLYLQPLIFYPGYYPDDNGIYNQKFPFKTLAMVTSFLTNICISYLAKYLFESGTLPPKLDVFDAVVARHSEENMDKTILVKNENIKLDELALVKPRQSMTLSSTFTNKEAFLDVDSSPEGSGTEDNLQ

[10] = target: T3, Ubiquitin-conjugating enzyme E2 N (Homo sapiens, UniProt P61088); assay type: functional;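 note: Dose-response confirmation in a TR-FRET assay detecting UBC13-driven polyubiquitin chain formation, inhibition measured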
T3 sequence (P61088 whole entry): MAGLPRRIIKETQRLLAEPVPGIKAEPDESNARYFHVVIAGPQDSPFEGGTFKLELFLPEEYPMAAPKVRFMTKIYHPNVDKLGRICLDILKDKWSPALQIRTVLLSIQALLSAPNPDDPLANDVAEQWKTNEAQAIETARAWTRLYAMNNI

[11] = target: Voltage-dependent T-type calcium channel subunit alpha-1H (Homo sapiens, UniProt O95180); assay type: functional;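 note: channel activity triggered by adding a high calcium stimulation buffer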
Voltage-dependent T-type calcium channel subunit alpha-1H, sequence (O95180 whole entry): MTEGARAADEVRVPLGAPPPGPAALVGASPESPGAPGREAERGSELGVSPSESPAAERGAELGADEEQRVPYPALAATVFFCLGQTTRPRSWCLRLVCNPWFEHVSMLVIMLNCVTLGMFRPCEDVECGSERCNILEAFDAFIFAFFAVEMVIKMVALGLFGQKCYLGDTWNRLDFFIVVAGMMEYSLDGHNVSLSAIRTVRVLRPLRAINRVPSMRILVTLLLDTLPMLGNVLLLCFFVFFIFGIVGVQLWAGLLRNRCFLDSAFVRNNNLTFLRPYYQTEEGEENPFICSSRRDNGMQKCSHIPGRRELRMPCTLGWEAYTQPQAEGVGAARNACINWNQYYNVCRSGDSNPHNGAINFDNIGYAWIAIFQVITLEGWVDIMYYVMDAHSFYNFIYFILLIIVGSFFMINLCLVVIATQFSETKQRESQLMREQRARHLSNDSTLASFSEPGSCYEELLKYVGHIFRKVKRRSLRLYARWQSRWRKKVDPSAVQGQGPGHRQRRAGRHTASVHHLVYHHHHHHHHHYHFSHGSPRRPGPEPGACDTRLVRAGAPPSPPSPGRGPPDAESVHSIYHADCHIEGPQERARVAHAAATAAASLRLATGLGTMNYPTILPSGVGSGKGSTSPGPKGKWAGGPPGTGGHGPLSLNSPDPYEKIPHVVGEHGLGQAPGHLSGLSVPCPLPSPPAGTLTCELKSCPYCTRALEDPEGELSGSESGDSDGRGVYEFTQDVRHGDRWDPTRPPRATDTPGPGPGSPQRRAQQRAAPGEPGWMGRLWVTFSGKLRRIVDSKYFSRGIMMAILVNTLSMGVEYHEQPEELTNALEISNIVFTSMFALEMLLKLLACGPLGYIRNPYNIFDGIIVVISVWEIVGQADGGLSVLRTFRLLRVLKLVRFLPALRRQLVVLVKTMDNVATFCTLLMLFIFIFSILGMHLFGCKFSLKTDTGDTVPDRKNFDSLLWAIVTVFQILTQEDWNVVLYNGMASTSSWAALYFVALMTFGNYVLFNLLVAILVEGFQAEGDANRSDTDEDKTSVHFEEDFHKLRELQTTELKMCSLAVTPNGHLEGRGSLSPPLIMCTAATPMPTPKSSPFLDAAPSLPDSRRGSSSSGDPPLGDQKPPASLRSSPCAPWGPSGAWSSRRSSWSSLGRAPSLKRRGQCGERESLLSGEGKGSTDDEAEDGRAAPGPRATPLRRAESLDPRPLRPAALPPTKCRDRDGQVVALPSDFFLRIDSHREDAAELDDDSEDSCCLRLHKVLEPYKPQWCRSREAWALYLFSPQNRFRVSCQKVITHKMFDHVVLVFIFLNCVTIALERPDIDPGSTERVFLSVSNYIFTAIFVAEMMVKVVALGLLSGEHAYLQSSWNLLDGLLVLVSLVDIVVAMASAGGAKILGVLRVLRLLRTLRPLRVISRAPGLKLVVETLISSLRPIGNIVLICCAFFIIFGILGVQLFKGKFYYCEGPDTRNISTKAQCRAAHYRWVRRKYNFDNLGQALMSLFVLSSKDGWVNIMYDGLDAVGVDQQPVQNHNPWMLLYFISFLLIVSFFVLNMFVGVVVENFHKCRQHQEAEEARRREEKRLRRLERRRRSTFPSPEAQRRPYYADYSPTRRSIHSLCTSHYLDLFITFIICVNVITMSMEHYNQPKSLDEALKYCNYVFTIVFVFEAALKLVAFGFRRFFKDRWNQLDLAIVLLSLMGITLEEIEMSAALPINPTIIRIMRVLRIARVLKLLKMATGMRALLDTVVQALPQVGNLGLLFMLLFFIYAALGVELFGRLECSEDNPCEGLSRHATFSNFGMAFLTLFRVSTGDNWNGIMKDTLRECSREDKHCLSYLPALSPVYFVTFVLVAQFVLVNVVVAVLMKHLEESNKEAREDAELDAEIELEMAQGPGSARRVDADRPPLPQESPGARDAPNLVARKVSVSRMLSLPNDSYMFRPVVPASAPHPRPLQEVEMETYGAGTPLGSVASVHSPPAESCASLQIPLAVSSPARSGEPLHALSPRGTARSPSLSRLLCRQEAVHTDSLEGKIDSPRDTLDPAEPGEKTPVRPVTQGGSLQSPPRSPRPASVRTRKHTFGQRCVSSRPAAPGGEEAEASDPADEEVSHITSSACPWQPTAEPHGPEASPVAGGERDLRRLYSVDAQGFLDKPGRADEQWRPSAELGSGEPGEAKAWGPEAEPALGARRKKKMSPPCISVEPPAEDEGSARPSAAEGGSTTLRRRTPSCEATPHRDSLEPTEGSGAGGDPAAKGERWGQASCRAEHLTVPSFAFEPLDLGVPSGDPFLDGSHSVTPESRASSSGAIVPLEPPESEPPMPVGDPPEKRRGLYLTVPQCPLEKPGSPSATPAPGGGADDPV

[12] = target: T4, Calpain-2 catalytic subunit (Sus scrofa, UniProt P43367); experiment: m-calpain protease blockers, concentration series – biochemical, fluorogenic peptide substrate, dose response (AID 1420); assay type: functional
T4 sequence (P43367 whole entry): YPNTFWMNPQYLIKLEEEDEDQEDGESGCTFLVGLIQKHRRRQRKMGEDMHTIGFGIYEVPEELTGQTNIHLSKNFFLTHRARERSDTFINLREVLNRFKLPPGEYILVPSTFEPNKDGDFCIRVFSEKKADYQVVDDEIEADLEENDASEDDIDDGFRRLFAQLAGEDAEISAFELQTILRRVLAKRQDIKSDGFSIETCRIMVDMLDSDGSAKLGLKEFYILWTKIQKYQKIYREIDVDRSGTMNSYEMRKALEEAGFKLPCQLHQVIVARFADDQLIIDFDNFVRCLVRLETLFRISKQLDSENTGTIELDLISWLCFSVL

Beta-galactosidase = Beta-galactosidase (Escherichia coli, UniProt Q8VNN2); experiment: PubChem AID 485352; assay type: functional
[13] = target: T5, Type-1 angiotensin II receptor (Homo sapiens, UniProt P30556); experiment: antagonism of angiotensin II type 1 receptor – cell-based, uHTS hits, selectivity assay for APJ receptor antagonist project, dose response (AID 463214); assay type: functional;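 note: antagonist potency against angiotensin II stimulated AT1 response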
T5 sequence (P30556 whole entry): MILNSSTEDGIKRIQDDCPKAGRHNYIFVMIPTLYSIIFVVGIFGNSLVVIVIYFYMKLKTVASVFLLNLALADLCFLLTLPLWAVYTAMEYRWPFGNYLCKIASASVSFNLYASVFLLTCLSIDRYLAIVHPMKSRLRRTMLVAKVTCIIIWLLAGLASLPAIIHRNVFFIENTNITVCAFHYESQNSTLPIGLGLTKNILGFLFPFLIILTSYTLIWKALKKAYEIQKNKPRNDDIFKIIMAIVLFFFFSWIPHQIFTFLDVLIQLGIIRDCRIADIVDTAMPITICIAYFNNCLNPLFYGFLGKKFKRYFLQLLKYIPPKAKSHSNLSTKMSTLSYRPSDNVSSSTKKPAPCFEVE

Fatty acid synthase [14] = target: T6, Fatty acid synthase (Homo sapiens, UniProt P49327); experiment: inhibition of human FAS-TE enzyme activity – biochemical, kinetic fluorescence intensity, dose response (AID 624326); assay type: functional;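 note: rate of fluorescence rise from hydrolysis of a fluorogenic O-methyl fluorescein ester substrate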
T6 sequence (P49327 whole entry): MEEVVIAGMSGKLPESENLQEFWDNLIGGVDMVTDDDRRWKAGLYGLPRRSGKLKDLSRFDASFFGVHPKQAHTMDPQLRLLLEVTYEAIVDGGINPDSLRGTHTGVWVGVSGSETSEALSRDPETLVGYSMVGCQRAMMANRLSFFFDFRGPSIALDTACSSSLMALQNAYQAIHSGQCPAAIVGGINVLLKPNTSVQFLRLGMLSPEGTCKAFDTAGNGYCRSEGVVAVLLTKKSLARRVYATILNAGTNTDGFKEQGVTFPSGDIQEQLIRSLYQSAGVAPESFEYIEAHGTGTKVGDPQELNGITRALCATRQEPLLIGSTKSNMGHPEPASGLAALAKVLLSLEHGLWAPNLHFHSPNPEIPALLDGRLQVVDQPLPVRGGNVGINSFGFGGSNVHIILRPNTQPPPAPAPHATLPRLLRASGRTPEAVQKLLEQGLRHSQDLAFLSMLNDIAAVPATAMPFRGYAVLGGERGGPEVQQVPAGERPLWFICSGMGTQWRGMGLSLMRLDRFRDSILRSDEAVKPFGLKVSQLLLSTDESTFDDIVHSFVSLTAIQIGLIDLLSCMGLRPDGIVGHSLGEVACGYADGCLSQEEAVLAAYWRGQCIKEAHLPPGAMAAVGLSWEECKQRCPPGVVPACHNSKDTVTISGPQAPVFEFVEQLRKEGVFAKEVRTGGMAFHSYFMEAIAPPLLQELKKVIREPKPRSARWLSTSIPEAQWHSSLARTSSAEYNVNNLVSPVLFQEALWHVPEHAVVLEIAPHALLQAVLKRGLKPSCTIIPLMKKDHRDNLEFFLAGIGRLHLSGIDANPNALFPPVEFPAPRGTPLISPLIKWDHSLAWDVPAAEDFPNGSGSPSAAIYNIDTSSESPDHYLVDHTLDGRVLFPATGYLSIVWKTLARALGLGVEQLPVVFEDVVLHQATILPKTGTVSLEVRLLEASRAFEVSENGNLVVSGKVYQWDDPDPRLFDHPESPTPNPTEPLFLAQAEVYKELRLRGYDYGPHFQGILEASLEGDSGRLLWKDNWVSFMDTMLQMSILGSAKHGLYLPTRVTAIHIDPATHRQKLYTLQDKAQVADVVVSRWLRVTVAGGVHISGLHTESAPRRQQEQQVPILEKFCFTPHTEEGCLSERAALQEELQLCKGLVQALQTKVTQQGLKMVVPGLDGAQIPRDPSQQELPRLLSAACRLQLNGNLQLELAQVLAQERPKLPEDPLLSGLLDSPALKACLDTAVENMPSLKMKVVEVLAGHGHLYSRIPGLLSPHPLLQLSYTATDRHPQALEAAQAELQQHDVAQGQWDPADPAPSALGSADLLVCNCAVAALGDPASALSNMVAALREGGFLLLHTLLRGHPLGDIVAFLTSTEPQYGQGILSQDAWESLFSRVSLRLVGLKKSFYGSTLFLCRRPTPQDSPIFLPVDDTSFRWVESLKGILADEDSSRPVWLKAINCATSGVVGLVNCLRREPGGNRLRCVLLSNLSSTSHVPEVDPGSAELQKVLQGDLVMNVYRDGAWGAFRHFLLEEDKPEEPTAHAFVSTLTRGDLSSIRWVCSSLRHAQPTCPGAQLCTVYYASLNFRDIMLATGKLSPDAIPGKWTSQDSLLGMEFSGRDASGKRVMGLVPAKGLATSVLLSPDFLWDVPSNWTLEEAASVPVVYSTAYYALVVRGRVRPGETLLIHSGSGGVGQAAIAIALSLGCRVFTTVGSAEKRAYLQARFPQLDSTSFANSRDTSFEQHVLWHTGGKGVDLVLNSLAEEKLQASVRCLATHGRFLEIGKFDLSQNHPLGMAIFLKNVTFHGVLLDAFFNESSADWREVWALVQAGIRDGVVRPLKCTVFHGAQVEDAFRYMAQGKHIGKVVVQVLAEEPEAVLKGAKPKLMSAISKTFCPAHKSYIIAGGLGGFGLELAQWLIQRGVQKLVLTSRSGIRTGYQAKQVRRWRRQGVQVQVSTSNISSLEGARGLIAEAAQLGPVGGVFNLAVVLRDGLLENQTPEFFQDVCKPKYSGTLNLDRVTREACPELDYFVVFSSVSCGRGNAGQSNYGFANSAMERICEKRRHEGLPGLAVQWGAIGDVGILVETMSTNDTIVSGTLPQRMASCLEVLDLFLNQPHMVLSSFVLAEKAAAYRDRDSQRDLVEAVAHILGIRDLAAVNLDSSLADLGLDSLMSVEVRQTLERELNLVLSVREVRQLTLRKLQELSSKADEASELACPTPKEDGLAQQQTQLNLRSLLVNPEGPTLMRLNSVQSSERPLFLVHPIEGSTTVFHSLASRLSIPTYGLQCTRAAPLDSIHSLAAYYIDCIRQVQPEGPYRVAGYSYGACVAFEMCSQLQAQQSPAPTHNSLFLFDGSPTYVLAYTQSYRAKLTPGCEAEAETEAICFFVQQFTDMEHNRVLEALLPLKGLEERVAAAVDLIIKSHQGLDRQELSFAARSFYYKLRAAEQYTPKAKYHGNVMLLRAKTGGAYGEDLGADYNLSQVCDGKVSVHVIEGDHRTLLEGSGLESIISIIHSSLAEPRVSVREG

Fatty acid synthase [15] = target: T6, Fatty acid synthase; experiment: inhibition of human FAS-TE enzyme activity – biochemical, endpoint fluorescence intensity, uHTS hits, dose response (AID 624327); assay type: functional;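 note: fluorescence from hydrolysis of an O-methyl fluorescein acyl ester substrate by the enzyme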
[16] = Luminescence Cell-Based Dose Retest to Confirm Inhibitors of Cancer Stem Cells. [Related pubchem assays (depositor defined):AID2717, AID2721]; assay type: functional; details: Homo sapiens
[17] = target: T7, Rac GTPase-activating protein 1 (Homo sapiens, UniProt Q9H0H5); experiment: blockers of MgcRacGAP-driven Rac1 GTP hydrolysis – biochemical, ADP Hunter fluorescence, primary and confirmatory, confirmation (AID 624330); assay type: functional
T7 sequence (Q9H0H5 whole entry): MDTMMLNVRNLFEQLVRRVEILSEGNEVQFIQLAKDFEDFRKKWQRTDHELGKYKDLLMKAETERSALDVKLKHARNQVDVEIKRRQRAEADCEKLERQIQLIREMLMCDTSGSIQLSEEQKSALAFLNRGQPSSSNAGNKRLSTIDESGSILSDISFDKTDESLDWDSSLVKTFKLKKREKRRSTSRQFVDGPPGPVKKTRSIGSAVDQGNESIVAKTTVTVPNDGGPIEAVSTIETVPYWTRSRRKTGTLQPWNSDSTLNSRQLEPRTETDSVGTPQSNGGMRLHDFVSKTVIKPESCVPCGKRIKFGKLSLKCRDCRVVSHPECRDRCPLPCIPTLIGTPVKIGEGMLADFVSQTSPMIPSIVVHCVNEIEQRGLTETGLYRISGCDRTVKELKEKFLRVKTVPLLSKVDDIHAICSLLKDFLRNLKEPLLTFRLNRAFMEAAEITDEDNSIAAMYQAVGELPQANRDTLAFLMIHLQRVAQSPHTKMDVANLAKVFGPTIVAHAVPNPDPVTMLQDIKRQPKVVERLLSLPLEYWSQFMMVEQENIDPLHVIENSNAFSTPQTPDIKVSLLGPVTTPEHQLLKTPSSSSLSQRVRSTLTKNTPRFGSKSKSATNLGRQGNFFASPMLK

Cn1c(=O)cc(C(=O)N/N=C/c2ccc(F)cc2)[nH]c1=O
EC50 (cells [1]): > 350 µM (not active)
EC50 (cells [2]): > 350 µM (not active)

COc1ccc(-c2csc3nc(-c4cccnc4)nc(Cl)c23)cc1OC
EC50 [3]: 11.5 µM (active)
EC50 [4]: 10.4 µM (active)

C[C@H](CO)N1C[C@H](C)[C@H](CN(C)Cc2ccccc2)Oc2cc(-c3ccccc3)ccc2S1(=O)=O
AC50 [5]: 26.7 µM (active)
AC50 [6]: 21 µM (active)
AC50 [7]: 18.9 µM (active)

CCCN=C(S)N1CCCC(c2nc3ccccc3[nH]2)C1 (stereo not drawn)
EC50 (cells [1]): > 350 µM (not active)
EC50 [8]: > 195 µM (not active)
EC50 (cells [2]): > 350 µM (not active)

CCOC(=O)c1cccc(NC(=O)CSc2nnc(C)n2Cc2ccccc2)c1
IC50 [9]: 0.794 µM (active)

O=C(CSc1c[nH]c2ccccc12)NCc1ccc2c(c1)OCO2
EC50 (cells [1]): > 350 µM (not active)
EC50 (cells [2]): > 350 µM (not active)

COc1ccc(CCN(C)C(=O)c2ccc(COc3ccccc3)o2)cc1OC
IC50 [10]: > 20 µM (inactive)
IC50 [9]: 13.8 µM (active)

COc1ccc(N2CCN(S(=O)(=O)c3cc(-c4cc(C)no4)ccc3C(C)C)CC2)cc1
EC50 (cells [1]): > 350 µM (not active)
EC50 (cells [2]): > 350 µM (not active)

Cc1cc(NC(=O)COC(=O)C(Nc2ccc(C(F)(F)F)cc2Cl)C(C)C)no1 (stereo not drawn)
EC50 [11]: 3.96 µM (active)
IC50 [12]: 9.49 µM (not active)

Cc1ccccc1N=C(S)NNc1ncc(C(F)(F)F)cc1Cl
EC50 (Beta-galactosidase): > 40 µM (inactive)
IC50 [13]: 39.3 µM (not active)

O=C(COc1ncnc2cc([N+](=O)[O-])ccc12)N(CCc1ccccc1)Cc1ccccc1
IC50 (Fatty acid synthase [14]): 22.2 µM (inactive)
IC50 (Fatty acid synthase [15]): 5.94 µM (active)

Cc1nc(-c2ccccc2)sc1-c1nc(-c2cccnc2)ncc1S(=O)(=O)c1ccccc1
EC50 [11]: 8.73 µM (active)

O=C(O)CCN(CC(=O)c1ccc(Cl)cc1)S(=O)(=O)c1ccc([N+](=O)[O-])cc1
IC50 (Fatty acid synthase [14]): 4.83 µM (active)
IC50 (Fatty acid synthase [15]): 5.21 µM (active)

O=C(COC(=O)c1cc([N+](=O)[O-])ccc1Cl)NC1CCCC1
IC50 (Fatty acid synthase [14]): 1.12 µM (active)
IC50 (Fatty acid synthase [15]): 0.979 µM (active)

CCCCn1nc2cc(C(=O)NCCc3cccs3)ccc2c1OCC
IC50 [9]: 11.8 µM (active)

Cc1nc2ccc([N+](=O)[O-])cc2c(=O)n1Cc1ccc(F)cc1
IC50 (Fatty acid synthase [14]): 4.49 µM (active)
IC50 (Fatty acid synthase [15]): 3.27 µM (active)

C[C@H](CO)N1C[C@H](C)[C@H](CN(C)S(=O)(=O)c2cccc(F)c2)Oc2cc(Br)ccc2S1(=O)=O
AC50 [5]: 33.5 µM (active)
AC50 [6]: 3.27 µM (active)
AC50 [7]: 5.29 µM (active)

CCN1CCN(c2ccc(NC(=O)c3ccc4c(c3)nc(O)n4Cc3ccc(OC)cc3)cc2)CC1
EC50 [3]: 34.2 µM (active)
EC50 [4]: 32.2 µM (active)

COc1ccc(CC(=O)N(C)Cc2ccc(C(C)(C)C)cc2)cc1S(=O)(=O)N1CCOCC1
IC50 (Fatty acid synthase [14]): 2.02 µM (active)
IC50 (Fatty acid synthase [15]): 2.25 µM (active)

N=c1c2c(ncn1Cc1ccco1)Oc1c(ccc3ccccc13)C2c1ccccc1 (stereo not drawn)
AC50 [16]: 2.25 µM (active)
EC50 [3]: 5.53 µM (active)
EC50 [4]: 5.92 µM (active)

COc1cccc(CNC(=O)CSCc2cnn(-c3ccccc3)c2-n2cccc2)c1OC
EC50 [11]: 3.32 µM (active)

CCCOc1cccc(C2C(C(=O)c3ccco3)=C(O)C(=O)N2CCCn2ccnc2)c1 (stereo not drawn)
EC50 (cells [1]): > 350 µM (not active)
EC50 (cells [2]): > 350 µM (not active)

CCN(CC)S(=O)(=O)c1ccc(NC(=O)CCC2CCCCC2)cc1
EC50 [11]: 10.3 µM (active)

O=C1C=C(c2ccc(Cl)c(C(F)(F)F)c2)C[C@@H](c2ccc3c(c2)OCO3)C1
IC50 (Fatty acid synthase [14]): 5.82 µM (active)
AC50 [16]: 5.04 µM (active)
IC50 (Fatty acid synthase [15]): 5.66 µM (active)

CC(C)c1nc(C(=O)N2CCCC(N3CCN(c4cccc(Cl)c4)CC3)C2)cs1 (stereo not drawn)
IC50 [9]: 13.2 µM (active)

COc1cc2c(cc1OC)C1(Nc3c-2c(C)nn3-c2ccccc2)C(=O)Nc2ccccc21 (stereo not drawn)
EC50 [4]: 73.2 µM (active)

Cc1ccc(NC(=O)CCC(=O)N/N=C/c2ccc(O)cc2O)cc1
EC50 (cells [1]): > 350 µM (not active)
EC50 (cells [2]): > 350 µM (not active)
IC50 [17]: 56.6 µM (active)
